Reference: ChEMBL document CHEMBL1201862, “PubChem BioAssay data set” (2004)
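1) Cells in 96-well plates. 2) Compound, 48 h, 5 concentrations. 3) Linear interpolation between surrounding doses. 4) Unreached endpoint = highest concentration. The concentration for 50% growth inhibition is given as GI50.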 Active and inactive are the calls of the source. No stated cut-off is given here; in the data, active = GI50 up to about 1.1 µM and inactive = higher.

Assays:
Test in all cases: growth of human tumour cells (NCI), 48 h
IGROV-1 = tested on: IGROV-1
NCI/ADR-RES = tested on: NCI/ADR-RES
T47D = tested on: T47D
OVCAR-5 = tested on: OVCAR-5
NCI-H460 = tested on: NCI-H460
Malme-3M = tested on: Malme-3M
COLO 205 = tested on: COLO 205
DU-145 = tested on: DU-145
BT-549 = tested on: BT-549
NCI-H226 = tested on: NCI-H226
HCC 2998 = tested on: HCC 2998
SF-295 = tested on: SF-295
NCI-H23 = tested on: NCI-H23
SW-620 = tested on: SW-620
UACC-257 = tested on: UACC-257
SF-539 = tested on: SF-539
OVCAR-8 = tested on: OVCAR-8
MDA-MB-231 = tested on: MDA-MB-231
MOLT-4 = tested on: MOLT-4
HCT-15 = tested on: HCT-15

| SMILES | GI50 (IGROV-1) | GI50 (NCI/ADR-RES) | GI50 (T47D) | GI50 (OVCAR-5) | GI50 (NCI-H460) | GI50 (Malme-3M) | GI50 (COLO 205) | GI50 (DU-145) | GI50 (BT-549) | GI50 (NCI-H226) | GI50 (HCC 2998) | GI50 (SF-295) | GI50 (NCI-H23) | GI50 (SW-620) | GI50 (UACC-257) | GI50 (SF-539) | GI50 (OVCAR-8) | GI50 (MDA-MB-231) | GI50 (MOLT-4) | GI50 (HCT-15) |
| --- | --- | --- | --- | --- | --- | --- | --- | --- | --- | --- | --- | --- | --- | --- | --- | --- | --- | --- | --- | --- |
| Cn1c(=O)c2c(O)cc(N)nc2n(C)c1=O | > 100 µM (inactive) | > 100 µM (inactive) | > 100 µM (inactive) | > 100 µM (inactive) | > 100 µM (inactive) | > 100 µM (inactive) | > 100 µM (inactive) | > 100 µM (inactive) | > 100 µM (inactive) | > 100 µM (inactive) | > 100 µM (inactive) | > 100 µM (inactive) | > 100 µM (inactive) | > 100 µM (inactive) | > 100 µM (inactive) | > 100 µM (inactive) | 63.4 µM (inactive) | > 100 µM (inactive) | > 100 µM (inactive) | – |
| CCN1CC(C)Cn2c(=O)[nH]c3cc(Br)cc1c32 (stereo not drawn) | 18.5 µM (inactive) | 8.05 µM (inactive) | 18.5 µM (inactive) | 70.5 µM (inactive) | 30.6 µM (inactive) | 64.4 µM (inactive) | 11 µM (inactive) | 48.8 µM (inactive) | 4.1 µM (inactive) | 11.9 µM (inactive) | 32.8 µM (inactive) | 21.1 µM (inactive) | 36.8 µM (inactive) | 5.01 µM (inactive) | 76 µM (inactive) | 29.8 µM (inactive) | 23.7 µM (inactive) | 22.4 µM (inactive) | 3.05 µM (inactive) | 14.6 µM |
| Cc1cc(=O)c2ccccc2n1CCCCCCCCCCn1c(C)cc(=O)c2ccccc21 | 17.2 µM (inactive) | 16.6 µM (inactive) | 16.3 µM (inactive) | > 100 µM (inactive) | 15.7 µM (inactive) | 15.7 µM (inactive) | 21.9 µM (inactive) | 14 µM (inactive) | 11 µM (inactive) | 20.5 µM (inactive) | 11.8 µM (inactive) | > 10 µM (inactive) | 3.94 µM (inactive) | 20.4 µM (inactive) | 11.7 µM (inactive) | 25.8 µM (inactive) | 16.8 µM (inactive) | 29.5 µM (inactive) | 8.69 µM (inactive) | 31.3 µM |
| CN(C)CCCNC(=O)c1cc(NS(=O)(=O)c2ccc3c(c2)C(=O)c2ccccc2C3=O)cn1C | 33 µM (inactive) | > 100 µM (inactive) | 35.2 µM (inactive) | 35.6 µM (inactive) | 18.8 µM (inactive) | 5.5 µM (inactive) | 23.6 µM (inactive) | 40.3 µM (inactive) | 24.5 µM (inactive) | 22.9 µM (inactive) | 24.5 µM (inactive) | 31.3 µM (inactive) | 24.1 µM (inactive) | 46.3 µM (inactive) | 19.2 µM (inactive) | 42.8 µM (inactive) | 40.3 µM (inactive) | 24.8 µM (inactive) | 32.7 µM (inactive) | 42.8 µM |
| C=CC[C@H](N=C(SC)SC)C(=O)N1C(=O)N(C)[C@@H](C)[C@H]1c1ccccc1 | – | 29.5 µM (inactive) | 40.5 µM (inactive) | 54.6 µM (inactive) | 34.1 µM (inactive) | 51.6 µM (inactive) | 28 µM (inactive) | 37.5 µM (inactive) | 34.6 µM (inactive) | 31.6 µM (inactive) | 27.9 µM (inactive) | 40.3 µM (inactive) | 39.3 µM (inactive) | 30.1 µM (inactive) | 29.2 µM (inactive) | 36.4 µM (inactive) | 51.1 µM (inactive) | > 100 µM (inactive) | 26.4 µM (inactive) | 49.8 µM |
| COC(=O)c1c(C)nc(C)c(N=O)c1-c1ccccc1C(F)(F)F | 17.7 µM (inactive) | 20.6 µM (inactive) | 17.3 µM (inactive) | 21 µM (inactive) | 80.4 µM (inactive) | 15.8 µM (inactive) | 31.9 µM (inactive) | > 100 µM (inactive) | 18.5 µM (inactive) | 19.4 µM (inactive) | 79.6 µM (inactive) | > 100 µM (inactive) | 20.5 µM (inactive) | 15.5 µM (inactive) | 14 µM (inactive) | 20.7 µM (inactive) | 17.9 µM (inactive) | 18 µM (inactive) | 6.25 µM (inactive) | 20.3 µM |
